Data from PMC7443514 (Bioorganic & medicinal chemistry, 2020).
Read-outs that look alike come from different tables or passages of the source.

Assays:
[1] = target: T1, SARM1 TIR domain (bacterial lysate) (Homo sapiens, UniProt Q6SZW1); format: biochemical; settings: ENAD 0-400 μM; for Inhibition Mechanism: bacterially expressed TIR domain lysate
T1 sequence (Q6SZW1 561-724): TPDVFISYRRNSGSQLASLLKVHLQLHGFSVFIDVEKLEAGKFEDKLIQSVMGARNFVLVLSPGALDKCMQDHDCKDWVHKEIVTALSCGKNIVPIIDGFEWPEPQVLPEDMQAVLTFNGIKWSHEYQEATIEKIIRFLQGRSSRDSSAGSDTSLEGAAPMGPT

[2] = test system: SARM1; settings: substrate analog; cited from earlier work
[3] = target: T2, purified SARM1 TIR domain (Homo sapiens, UniProt Q6SZW1); assay: Dose response, ENAD assay, purified TIR domain; format: biochemical; settings: purified TIR domain (20 μM), 500 μM ENAD
T2 sequence (Q6SZW1 561-724): T1 sequence (Q6SZW1 561-724)

[4] = target: T1, SARM1 TIR domain (bacterial lysate); settings: cited from earlier work

Structure (SMILES): C[C@H]1c2cccc(O)c2C(=O)C2=C(O)[C@]3(O)C(=O)C(C(N)=O)=C(O)[C@@H](N(C)C)[C@@H]3[C@@H](O)[C@@H]21.Cl [Doxycycline Hydrochloride, Doxycycline hydrochloride]
- Inhibition Mechanism [1]: Noncompetitive

Structure (SMILES): NC(=O)c1ccc[n+]([C@@H]2O[C@H](COP(=O)([O-])OP(=O)(O)OC[C@H]3O[C@@H](n4cnc5c4ncn4ccnc54)[C@H](O)[C@@H]3O)[C@@H](O)[C@H]2O)c1 [ENAD, Nicotinamide 1,N^6-ethenoadenine dinucleotide]
- Km [2]: 35 ± 15 µM
- kcat [2]: 0.05 ± 0.04 s⁻¹

Structure (SMILES): NC(=O)N/N=C/c1ccc([N+](=O)[O-])o1 [Nitroflurazone]
- Inhibition Mechanism [1]: Noncompetitive

Structure (SMILES): Cl.Nc1ccc(/N=N/c2ccccc2)c(N)n1 [Phenazopyridine Hydrochloride, Phenazopyridine hydrochloride]
- Inhibition Mechanism [1]: Competitive

Structure (SMILES): [O-][n+]1ccccc1[S-].[O-][n+]1ccccc1[S-].[Zn+2] [Pyrithone Zinc, Pyrithone zinc]
- Inhibition Mechanism [1]: Noncompetitive

Structure (SMILES): [Cl-].[Cl-].[Zn+2] [Zinc Chloride, Zinc chloride]
- IC50 [3]: 10 ± 1 µM
- Ki ([1]; bacterially expressed TIR domain (300 nM) lysate): 3.3 ± 0.1 µM
- Inhibition Mechanism [1]: Noncompetitive
- Inhibition Mechanism [4]: noncompetitive
- Ki [4]: 3.3 ± 0.1 µM
